Measurements published in patent US20260209260A1, “VECTORIZED NHC IRIDIUM(III) COMPLEXES AND USE THEREOF IN PHOTODYNAMIC THERAPY AND/OR DIAGNOSTIC” (CENTRE NATIONAL DE LA RECHERCHE SCIENTIFIQUE, priority 2022, published 2026).
Where “and” joins values, the source holds several entries; their conditions need not be identical. Equal values may be shown once. Read-outs that look alike come from different tables or passages of the source.

Columns and labels:
[1] = UV/Vis absorption spectra; format: physicochemical; settings: room temperature, air-saturated CH2Cl2 or CH2Cl2/MeOH (1:1), 50 μM; ε in brackets, sh = shoulder
Protocol: UV/Vis absorption spectra were recorded at RT on solutions contained in quartz cuvettes (optical pathlength 1 cm, Hellma®) with a PerkinElmer® UV/VIS/NIR spectrophotometer Lambda 950 and a PerkinElmer® detector UV/VIS/NIR Accessory 2D Detector Module.

[2] = tested on: MC3T3 osteoblast cells (non-tumor); experiment: Cell viability assay (MTT), dark and blue light; format: cell-based, Murine; settings: for Photosensitizing index (PI) MC3T3: dark vs blue light 458 nm
In short: (§1)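 Cells were either kept dark for the full 72 h with complex or given 10 min irradiation after 8 h dark pre-incubation, then held dark to 72 h. DMSO fixed at 0.1% (v/v); MTT formazan measured at 570 nm; ≥3 independent triplicate experiments.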

[3] = tested on: NIH-3T3 fibroblast cells (non-tumor); experiment: Cell viability assay (MTT), dark and blue light; format: cell-based, Murine; settings: for Photosensitizing index (PI) NIH-3T3: dark vs blue light 458 nm
In short: as §1

[4] = Lipophilicity: octanol-water partition coefficient, shake-flask method
In short: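 Octanol and water mutually pre-saturated for 24 h; compound ([…] stock in aqueous phase) partitioned against equal volume n-octanol, mixed 15 min, phases separated by centrifugation.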

[5] = Emission lifetime measurement; format: physicochemical
In short: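 Emission lifetimes measured by time-correlated single-photon counting (0.5 ns time resolution), excitation from a D2 lamp and a 405 nm pulsed diode laser. Estimated error 5% on lifetime.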

[6] = Luminescence emission spectra and quantum yield; format: physicochemical; settings: room temperature; reference POPOP in hexane or rhodamine B in ethanol
In short: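 Spectrofluorometric fluorescence/phosphorescence emission spectra of the iridium(III) complexes recorded in CH2Cl2 at room temperature. Quantum yields by the Demas–Crosby relative method on solutions at RT, from integrated emission band areas versus a reference standard of known yield, corrected for solvent refractive index.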

[7] = tested on: ASPC-1 pancreas cancer cells; experiment: Cell viability assay (MTT), dark and blue light; format: cell-based, Human; settings: for SI (vs MC3T3) ASPC-1 Blue / SI (vs NIH-3T3) ASPC-1 Blue: blue light 458 nm; for Photosensitizing index (PI) ASPC-1: dark vs blue light 458 nm
Protocol: (§2) Cells were grown in humidified incubators at 37° C. in 5% CO2. Murine MC3T3 osteoblast and NIH-3T3 fibroblast cells-used as non-tumor cell models-were cultured in a-MEM medium and DMEM medium supplemented with 10% fetal bovine serum (FBS) and 1% Penicillin/Streptomycin (P/S) antibiotics, respectively. Human T24 bladder, MGHU3 bladder, Scaber bladder, A549 lung, MCF7 breast, MiaPaCa2 pancreas cancer cells were cultured in DMEM medium supplemented with 10% FBS and 1% P/S antibiotics. […] Human Hela cervix and HepG2 liver cancer cells were cultured EMEM medium supplemented with 10% FBS and 1% P/S antibiotics.
(§3) MTT reagent (3-(4,5-dimethylthiazol-2-yl)-2,5-diphenyltetrazolium bromide) was used to determine cell death as originally described by Mosmann. Briefly, cells were seeded from 5,000 to 10,000 cells/well in 24-well plates (1 mL) depending on the cell type and allowed to attach overnight. The complexes were prepared in DMSO. The concentration of the complexes was calculated based on the elemental composition of the complexes determined by the elemental analyses. All cell viability experiments were carried out with a fixed concentration of 0.1% (v/v) DMSO. After 72 h of treatment, cells were incubated at 37° C. and 5% CO2 with 25 μL of MTT solution (5 mg/ml; Sigma-Aldrich) in 24-well plates for 3 to 4 h. After solubilization with 500 μL of DMSO, formazan was quantified spectrophotometrically with a microplate reader at 570 nm absorbance (ClarioSTAR, BMG LabTech). […] All the results were calculated from data obtained in at least three independent experiments performed in triplicate.
(§4) Two sets of experiments were conducted in parallel for each complex to be studied:
(§5) 1. The cells were incubated with the different complexes (in the dark) for 72 h.
(§6) 2. The cells were incubated for 8 h with the different complexes (in the dark), then irradiated for 10 min, followed by an incubation in the dark up to 72 h.

[8] = tested on: MiaPaCa2 pancreas cancer cells; experiment: Cell viability assay (MTT), dark and blue light; format: cell-based, Human; settings: for SI (vs MC3T3) MiaPaCa2 Blue / SI (vs NIH-3T3) MiaPaCa2 Blue: blue light 458 nm; for Photosensitizing index (PI) MiaPaCa2: dark vs blue light 458 nm
Protocol: as §2, §3, §4, §5, §6

[9] = tested on: T24 bladder cancer cells; experiment: Cell viability assay (MTT), dark and blue light; format: cell-based, Human; settings: for SI (vs MC3T3) T24 Blue / SI (vs NIH-3T3) T24 Blue: blue light 458 nm; for Photosensitizing index (PI) T24: dark vs blue light 458 nm
Protocol: as §2, §3, §4, §5, §6

[10] = tested on: A549 lung cancer cells; experiment: Cell viability assay (MTT), dark and blue light; format: cell-based, Human; settings: for SI (vs MC3T3) A549 Blue / SI (vs NIH-3T3) A549 Blue: blue light 458 nm; for Photosensitizing index (PI) A549: dark vs blue light 458 nm
Protocol: as §2, §3, §4, §5, §6

[11] = tested on: cancer cells (all tumor cell lines tested); experiment: Cell viability assay (MTT), summary over the cancer cell lines tested; format: cell-based, Human
Protocol: as §2, §3, §4, §5, §6

[12] = POPOP in hexane, rhodamine B in ethanol; cited from earlier work
[13] = 8 h in the dark, blue light 458 nm 10 min, then dark up to 72 h, read-out: GI50 MC3T3 Blue
[14] = in the dark, 72 h, read-out: GI50 MC3T3 Dark
[15] = 8 h in the dark, blue light 458 nm 10 min, then dark up to 72 h, read-out: GI50 NIH-3T3 Blue
[16] = in the dark, 72 h, read-out: GI50 NIH-3T3 Dark
[17] = 8 h in the dark, blue light 458 nm 10 min, then dark up to 72 h, read-out: GI50 ASPC-1 Blue
[18] = in the dark, 72 h, read-out: GI50 ASPC-1 Dark
[19] = 8 h in the dark, blue light 458 nm 10 min, then dark up to 72 h, read-out: GI50 MiaPaCa2 Blue
[20] = in the dark, 72 h, read-out: GI50 MiaPaCa2 Dark
[21] = 8 h in the dark, blue light 458 nm 10 min, then dark up to 72 h, read-out: GI50 T24 Blue
[22] = in the dark, 72 h, read-out: GI50 T24 Dark
[23] = 8 h in the dark, blue light 458 nm 10 min, then dark up to 72 h, read-out: GI50 A549 Blue
[24] = in the dark, 72 h, read-out: GI50 A549 Dark

| SMILES | λmax (nm) ε (M^−1 · cm^−1) [1] | GI50 [2, 13] | Photosensitizing index (PI) MC3T3 [2] | GI50 [2, 14] | GI50 [3, 15] | Photosensitizing index (PI) NIH-3T3 [3] | GI50 [3, 16] | GI50 [7, 17] | SI (vs MC3T3) ASPC-1 Blue [7] | SI (vs NIH-3T3) ASPC-1 Blue [7] | SI (vs MC3T3) ASPC-1 Dark [7] | SI (vs NIH-3T3) ASPC-1 Dark [7] | Photosensitizing index (PI) ASPC-1 [7] | GI50 [7, 18] | GI50 [8, 19] | SI (vs MC3T3) MiaPaCa2 Blue [8] | SI (vs NIH-3T3) MiaPaCa2 Blue [8] | SI (vs MC3T3) MiaPaCa2 Dark [8] | SI (vs NIH-3T3) MiaPaCa2 Dark [8] | Photosensitizing index (PI) MiaPaCa2 [8] | other results |
| --- | --- | --- | --- | --- | --- | --- | --- | --- | --- | --- | --- | --- | --- | --- | --- | --- | --- | --- | --- | --- | --- |
| COC(=O)c1ccc2[n+](c1)[Ir-3]13([c]4ccccc4-2)([c]2ccccc2-c2ccc(C(=O)OC)c[n+]21)[c]1n(CCCNC(=O)c2ccccc2SC/C=C(\C)CC/C=C(\C)CCC=C(C)C)cc[n+]1-c1cccc[n+]13.F[P-](F)(F)(F)(F)F [II-e] | 310 (sh) (24540), 363 (sh) (5975), 432 (5280) nm (M^−1 · cm^−1) | 10100 nM | 1.1 | 11000 nM | 5200 nM | 2.3 | 12000 nM | 1300 nM | 7.9 | 4.1 | 2.2 | 2.3 | 4.0 | 5100 nM | 180 nM | 57.7 | 29.7 | 5.6 | 6.1 | 11.2 | Log P ([4]; n-octanol/water, shake-flask, mean of at least three determinations): 1.30 ± 0.02; τ1 emission lifetime [5]: 182 ns; ΦP emission phosphorescence quantum yield [6]: 4.6%; GI50 [8, 20]: 2000 nM; GI50 [9, 21]: 260 nM; SI (vs MC3T3) T24 Blue [9]: 38.8; SI (vs NIH-3T3) T24 Blue [9]: 20.0; SI (vs MC3T3) T24 Dark [9]: 5.0; SI (vs NIH-3T3) T24 Dark [9]: 5.5; Photosensitizing index (PI) T24 [9]: 8.6; GI50 [9, 22]: 2200 nM; GI50 [10, 23]: 690 nM; SI (vs MC3T3) A549 Blue [10]: 14.6; SI (vs NIH-3T3) A549 Blue [10]: 7.5; SI (vs MC3T3) A549 Dark [10]: 2.9; SI (vs NIH-3T3) A549 Dark [10]: 3.2; Photosensitizing index (PI) A549 [10]: 5.5; GI50 [10, 24]: 3800 nM; SI values, mean over cancer cells, dark [11]: 4.1 fold; SI values, median over cancer cells, dark [11]: 4.1 fold |
| CC(C)=CCC/C(C)=C/CC/C(C)=C/CSc1ccccc1C(=O)NCCCn1cc[n+]2[c]1[Ir-3]13([c]4ccccc4-c4ccc5ccccc5[n+]41)([c]1ccccc1-c1ccc4ccccc4[n+]13)[n+]1ccccc1-2.F[P-](F)(F)(F)(F)F [II-g] | 333 (20560), 438 (4735) nm (M^−1 · cm^−1) | 5900 nM | 1.0 | 5800 nM | 5100 nM | 0.8 | 4300 nM | 470 nM | 12.6 | 10.9 | 7.8 | 5.8 | 1.6 | 740 nM | 250 nM | 24.0 | 20.7 | 14.4 | 10.7 | 1.6 | Log P [4]: 1.95 ± 0.05; GI50 [8, 20]: 400 nM; GI50 [9, 21]: 640 nM and 650 nM; SI (vs MC3T3) T24 Blue [9]: 9.2; SI (vs NIH-3T3) T24 Blue [9]: 8.0; SI (vs MC3T3) T24 Dark [9]: 12.3; SI (vs NIH-3T3) T24 Dark [9]: 9.1; Photosensitizing index (PI) T24 [9]: 0.7; GI50 [9, 22]: 470 nM; GI50 [10, 23]: 390 nM; SI (vs MC3T3) A549 Blue [10]: 15.2; SI (vs NIH-3T3) A549 Blue [10]: 13.2; SI (vs MC3T3) A549 Dark [10]: 12.9; SI (vs NIH-3T3) A549 Dark [10]: 9.6; Photosensitizing index (PI) A549 [10]: 1.2; GI50 [10, 24]: 450 nM; selectivity for cancer cells over non-tumor cells, in words [11]: highest selectivity toward cancer cells compared to non-tumor cells; SI values, mean over cancer cells, dark [11]: 10.2 fold; SI values, median over cancer cells, dark [11]: 10.3 fold |
| CCN(CC)c1ccc2c(-c3ccccc3C(=O)O)c3ccc(=[N+](CC)CC)cc-3oc2c1.[Cl-] [rhodamine B] | – | – | – | – | – | – | – | – | – | – | – | – | – | – | – | – | – | – | – | – | quantum yield of the reference standard [12]: 65% |
